These results are taken from ChEMBL document CHEMBL4616683, “Inhibitors of Hypoxia-Inducible Factors as Treatment for Cancer” (ACS Med Chem Lett, 2020).

As usually defined, the IC50 is the concentration needed to halve the response being measured. A higher IC50 goes with lower potency.

The target in assay [1] is T1, Endothelial PAS domain-containing protein 1 (Homo sapiens, UniProt Q99814).
Description: Inhibition of human recombinant His6Gb1-tagged HIF2alpha PAS B domain (240 to 350 residues)/human recombinant His6/FLAG-tagged ARNT PAS B domain (356 to 470 residues) interaction incubated for 15 mins by AlphaScreen assay
Assay [2] concerns the target T1, Endothelial PAS domain-containing protein 1. This is another data set of the same source.
Description: Inhibition of HIF2-alpha in human 786-0 cells harboring HRE-Luc2P reporter construct incubated for 48 hrs by ONE-Glo EX reagent based luminescence assay

T1 sequence (Q99814 whole entry, the tested form may be a part): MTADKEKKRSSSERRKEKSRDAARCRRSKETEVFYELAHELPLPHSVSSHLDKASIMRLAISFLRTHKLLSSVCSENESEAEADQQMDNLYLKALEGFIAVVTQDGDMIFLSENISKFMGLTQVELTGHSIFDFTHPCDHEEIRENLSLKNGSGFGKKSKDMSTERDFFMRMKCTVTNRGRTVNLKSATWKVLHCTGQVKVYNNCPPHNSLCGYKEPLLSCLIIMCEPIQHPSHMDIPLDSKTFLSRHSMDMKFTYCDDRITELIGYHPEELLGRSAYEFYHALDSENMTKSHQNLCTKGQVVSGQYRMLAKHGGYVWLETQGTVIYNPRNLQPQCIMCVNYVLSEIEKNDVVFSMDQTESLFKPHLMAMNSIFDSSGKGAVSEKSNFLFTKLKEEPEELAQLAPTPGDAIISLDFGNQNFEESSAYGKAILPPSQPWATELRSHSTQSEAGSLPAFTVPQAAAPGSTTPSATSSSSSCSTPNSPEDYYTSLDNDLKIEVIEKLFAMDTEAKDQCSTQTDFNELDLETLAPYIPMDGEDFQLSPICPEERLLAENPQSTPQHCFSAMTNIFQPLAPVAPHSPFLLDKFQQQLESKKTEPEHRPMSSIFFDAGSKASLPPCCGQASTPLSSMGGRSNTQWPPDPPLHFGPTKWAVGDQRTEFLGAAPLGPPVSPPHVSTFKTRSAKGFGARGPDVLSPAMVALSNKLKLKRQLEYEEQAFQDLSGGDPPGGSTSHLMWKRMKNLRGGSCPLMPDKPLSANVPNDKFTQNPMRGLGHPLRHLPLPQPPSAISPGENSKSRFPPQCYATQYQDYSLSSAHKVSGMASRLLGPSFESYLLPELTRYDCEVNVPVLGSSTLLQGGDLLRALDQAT

Regarding `Cn1nc(C(F)(F)F)cc1-c1sc(S(C)(=O)=O)c2c1CCC(F)(F)[C@H]2O`, the IC50 in assay [1] and in assay [2] was more than 1 µM throughout.
